Test results published in PubChem BioAssay AID1963844 (Molecular Pharmacology Branch, DTP, NCI, 2024).

Tested on: 422866-222-R5-J1-PDC complex spheroid viability
Test: Anticancer human tumor 422866-222-R5-J1-PDC patient-derived pancreatic adenocarcinoma cell line growth inhibition [POLQ]
Settings: for IC50: curve of first compound; for viability, T/C: stronger effect = lower value
Description: Multicellular complex tumor spheroid response to Polymerase (POL) inhibitors (novobiocin, ART-558, RP6685) in combination with a variety of drugs and investigational agents in selected tumor cell lines
The POL inhibitors (novobiocin, ART-558, and RP6685) were evaluated both individually and in combination with standard of care and investigational anticancer small molecules within a complex spheroid model of solid tumors. . Complex spheroids include a stromal component modeled by human endothelial cells (HUVEC) and fibroblasts modeled by human mesenchymal stem cells (MSCs). The concentration ranges selected for each drug and investigational agent were based upon clinically achievable concentrations if the clinical Cmax of the agent was known.
Compounds. The drugs and investigational agents: novobiocin (NSC847541), ART-558 (NSC835418), RP-6685 (NSC848927), peposertib (NSC802822), ceralasertib (NSC780249), elimusertib (NSC800525), camonsertib (NSC841442), AZD-1390 (NSC803789), olaparib (NSC753686), talazoparib (NSC767125), rucaparib (NSC756644), sotorasib (NSC818433), MRTX-1133 (NSC836407), SN-38 (NSC673596), topotecan (NSC609699), epotoside (NSC141540), doxorubicin (NSC123127), gemcitabine (NSC613327), 5-fluorouracil (NSC19893), paclitaxel (NSC125973), vemurafenib (NSC761431), MSA-2 (NSC828583), SN-011 (NSC837082), adavosertib (NSC754352), prexasertib (NSC758257), carboplatin (NSC241240) and oxaliplatin (NSC266046), were obtained from the National Cancer Institute (NCI) Developmental Therapeutics Program Chemical Repository (21). The FDA-approved anticancer drug set is available from the Developmental Therapeutics Program at https://dtp.cancer.gov/organization/dscb/obtaining/. […] The stock solutions were prepared in dimethyl sulfoxide (DMSO, Sigma-Aldrich, St. Louis, MO, cat. D2650), except for the platinum compounds which were prepared in saline (Quality Biological, Gaithersburg, MD, cat. 114-055-101), at 800-fold the tested concentration and stored at -70 degrees C prior to their use. All drugs and investigational agents were tested over a range starting from a high concentration at or near the clinical Cmax and decreasing in half-log increments. If the clinical Cmax for an agent had not been determined, the highest concentration tested was 10 microM, except for SN-38, which was tested at a high concentration of 1 microM.
Cell Culture. All cells were maintained in an incubator at 37 degrees C and 5% CO2 with 95% humidity. The PDC lines were cultured according to standard operating procedures established by the NCI PDMR (https://pdmr.cancer.gov). Table 3 of the manuscript, lists the cell lines along with the number of the three cell types plated to form the mct-spheroids and media for tumor cell growth. After thawing, all PDC lines, except 997537-175-T-J1-PDC and 415267-285-R-J2-PDC, were cultured in Matrigel-coated flasks prepared with a working solution of 1X Ham's F-12 nutrient mix, without supplementation (Thermo Fisher Scientific, cat. 11765054), 100 U/mL penicillin-streptomycin (Thermo Fisher Scientific, cat. 15140122), and 2.5% Matrigel (Corning Inc., Corning, NY, cat. 354248) for the first three passages. The two PDC lines 997537-175-T-J1-PDC and 415267-285-R-J2-PDC were cultured on uncoated flasks. The 857933-349-R-J2-PDC line was cultured in 6C/Colon 1B media containing advanced DMEM/F-12 (Thermo Fisher Scientific, cat. 12634028), 10 mM HEPES (Thermo Fisher Scientific, cat. 15630080), 1X GlutaMAX supplement (Thermo Fisher Scientific, cat. 35050061), 0.1 mg/mL primocin (InvivoGen, San Diego, CA, cat. ant-pm-2), 10% defined fetal bovine serum, heat inactivated (HyClone Laboratories Inc., Logan, UT, cat. SH30070.03HI), 50% L-WRN conditioned media (ATCC, cat. CRL-3276), 1.25 mM N-Acetyl-L-cysteine (Sigma-Aldrich, cat. A9165), 10 mM nicotinamide (Sigma-Aldrich, cat. N0636), 1X B-27 supplement (Thermo Fisher Scientific, cat. 17504044), 1X N-2 supplement (Thermo Fisher Scientific, cat. […]

[1] = second compound 0.0316 µM, first compound 0.00316 µM
[2] = second compound 0.0316 µM, first compound 0.01 µM
[3] = second compound 0.0316 µM, first compound 0.0316 µM
[4] = second compound 0.0316 µM, first compound 0.1 µM
[5] = second compound 0.1 µM, first compound 0.00316 µM
[6] = second compound 0.1 µM, first compound 0.01 µM
[7] = second compound 0.1 µM, first compound 0.0316 µM
[8] = second compound 0.1 µM, first compound 0.1 µM
[9] = second compound 0.316 µM, first compound 0.00316 µM
[10] = second compound 0.316 µM, first compound 0.01 µM
[11] = second compound 0.316 µM, first compound 0.0316 µM
[12] = second compound 0.316 µM, first compound 0.1 µM
[13] = second compound 1 µM, first compound 0.00316 µM
[14] = second compound 1 µM, first compound 0.01 µM
[15] = second compound 1 µM, first compound 0.0316 µM
[16] = second compound 1 µM, first compound 0.1 µM
[17] = second compound 3.16 µM, first compound 0.00316 µM
[18] = second compound 3.16 µM, first compound 0.01 µM
[19] = second compound 3.16 µM, first compound 0.0316 µM
[20] = second compound 3.16 µM, first compound 0.1 µM
[21] = second compound 10 µM, first compound 0.00316 µM
[22] = second compound 10 µM, first compound 0.01 µM
[23] = second compound 10 µM, first compound 0.0316 µM
[24] = second compound 10 µM, first compound 0.1 µM
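Further: spheroids exposed to compounds for one week before readout.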
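Wherever viability, T/C is given: percent of DMSO vehicle wells luminescence so 100% = untreated viability.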

In the case of `CC[C@@]1(O)C(=O)OCc2c1cc1n(c2=O)Cc2cc3c(CN(C)C)c(O)ccc3nc2-1` + Nc1ccc(C#CCN(C(=O)Cc2ncc(C(F)(F)F)cc2C(F)(F)F)c2ccc(F)cc2)nn1, the IC50 (second compound 0.0316 µM) is reported as 0.0263 µM, the IC50 (second compound 0.1 µM) is reported as 0.0184 µM and the IC50 (second compound 0.316 µM) is reported as 0.0195 µM. The IC50 (second compound 1 µM) was 0.0107 µM, the IC50 (second compound 3.16 µM) was 0.0197 µM and the IC50 (second compound 10 µM) was 0.0266 µM. It also gave a viability, T/C (second compound 0.0316 µM, first compound 0.000316 µM) of 102%, a viability, T/C (second compound 0.0316 µM, first compound 0.001 µM) of 109% and a viability, T/C [1] of 93.3%. It also gave a viability, T/C [2] of 76%, a viability, T/C [3] of 44% and a viability, T/C [4] of 34.6%. The viability, T/C (second compound 0.1 µM, first compound 0.000316 µM) was 99.1%, the viability, T/C (second compound 0.1 µM, first compound 0.001 µM) was 87.2% and the viability, T/C [5] was 89.6%. The viability, T/C [6] was 63.9%, the viability, T/C [7] was 37.4% and the viability, T/C [8] was 33.6%. For the same compound, the viability, T/C (second compound 0.316 µM, first compound 0.000316 µM) was 85.6%, the viability, T/C (second compound 0.316 µM, first compound 0.001 µM) was 105% and the viability, T/C [9] was 87%. It also gave a viability, T/C [10] of 63.8%, a viability, T/C [11] of 40.8% and a viability, T/C [12] of 34.8%. It also gave a viability, T/C (second compound 1 µM, first compound 0.000316 µM) of 105%, a viability, T/C (second compound 1 µM, first compound 0.001 µM) of 108% and a viability, T/C [13] of 80.5%. The viability, T/C [14] was 53.6%, the viability, T/C [15] was 33.3% and the viability, T/C [16] was 35.7%. It also gave a viability, T/C (second compound 3.16 µM, first compound 0.000316 µM) of 89.2%, a viability, T/C (second compound 3.16 µM, first compound 0.001 µM) of 100% and a viability, T/C [17] of 92.9%. It also gave a viability, T/C [18] of 68.1%, a viability, T/C [19] of 36.9% and a viability, T/C [20] of 37%. For the same compound, the viability, T/C (second compound 10 µM, first compound 0.000316 µM) was 114%, the viability, T/C (second compound 10 µM, first compound 0.001 µM) was 99.4% and the viability, T/C [21] was 100%. For the same compound, the viability, T/C [22] was 75.8%, the viability, T/C [23] was 44.5% and the viability, T/C [24] was 31.5%.
`CCc1c2c(nc3ccc(O)cc13)-c1cc3c(c(=O)n1C2)COC(=O)[C@]3(O)CC` + Nc1ccc(C#CCN(C(=O)Cc2ncc(C(F)(F)F)cc2C(F)(F)F)c2ccc(F)cc2)nn1 gave an IC50 (second compound 0.0316 µM) of under 0.00316 µM, an IC50 (second compound 0.1 µM) of under 0.00316 µM and an IC50 (second compound 0.316 µM) of under 0.00316 µM. The IC50 (second compound 1 µM) was under 0.00316 µM, the IC50 (second compound 3.16 µM) was under 0.00316 µM and the IC50 (second compound 10 µM) was under 0.00316 µM. For the same compound, the viability, T/C [1] was 40%, the viability, T/C [2] was 32.4% and the viability, T/C [3] was 33.4%. For the same compound, the viability, T/C [4] was 33%, the viability, T/C (second compound 0.0316 µM, first compound 0.316 µM) was 35% and the viability, T/C (second compound 0.0316 µM, first compound 1 µM) was 16.2%. The viability, T/C [5] was 39.4%, the viability, T/C [6] was 37.8% and the viability, T/C [7] was 35%. For the same compound, the viability, T/C [8] was 32.4%, the viability, T/C (second compound 0.1 µM, first compound 0.316 µM) was 32.8% and the viability, T/C (second compound 0.1 µM, first compound 1 µM) was 20.6%. For the same compound, the viability, T/C [9] was 35.8%, the viability, T/C [10] was 38% and the viability, T/C [11] was 34.8%. The viability, T/C [12] was 33.3%, the viability, T/C (second compound 0.316 µM, first compound 0.316 µM) was 33% and the viability, T/C (second compound 0.316 µM, first compound 1 µM) was 16.9%. It also gave a viability, T/C [13] of 38.4%, a viability, T/C [14] of 32.3% and a viability, T/C [15] of 32.7%. The viability, T/C [16] was 31%, the viability, T/C (second compound 1 µM, first compound 0.316 µM) was 30.5% and the viability, T/C (second compound 1 µM, first compound 1 µM) was 21.7%. For the same compound, the viability, T/C [17] was 36.2%, the viability, T/C [18] was 31.6% and the viability, T/C [19] was 29.4%. For the same compound, the viability, T/C [20] was 32.7%, the viability, T/C (second compound 3.16 µM, first compound 0.316 µM) was 39.1% and the viability, T/C (second compound 3.16 µM, first compound 1 µM) was 23.1%. It also gave a viability, T/C [21] of 38.6%, a viability, T/C [22] of 35% and a viability, T/C [23] of 36.9%. It also gave a viability, T/C [24] of 28.7%, a viability, T/C (second compound 10 µM, first compound 0.316 µM) of 31.2% and a viability, T/C (second compound 10 µM, first compound 1 µM) of 18.6%.
